Data on 21 compounds can be found in patent US20100029609A1 (priority 2006, published 2010).

The target in the assay is T1, human S1P1 receptors (Homo sapiens, UniProt P21453).
T1 construct: expressed in transfected cells; host or cells: HeLa (human cervix carcinoma, ATCC CCL2), HeLa-S1P1/Gα16 cell clone 1
Kind of assay: Human S1P Receptor Calcium FLIPR Antagonist Assay, HeLa Gα16 S1P1. The following applies: HeLa-S1P1/Gα16 cells; antagonism of Ca2+ signal of probing agonist GNF-AC-1 at EC80. The class given is cell-based. An excerpt: Human S1P Receptor Calcium FLIPR Antagonist Assays
The assay measures intracellular changes of Ca^2+ mediated by the synthetic probing agonist 3-{[2-(2-Trifluoromethyl-biphenyl-4-yl)-benzo[b]thiophen-5-ylmethyl]-amino}-propionic acid (GNF-AC-1) in the HeLa-S1P1/Gα16 cell clone 1: HeLa (human cervix carcinoma, ATCC CCL2) cells stably expressing N-terminally myc-tagged human S1P1 receptors (GenBank™ accession No. NM_001400; UNIPROT P21453) and promiscuous Gα16 protein (GenBank™ accession number M63904, Swissprot P30679) are cultured at 37° C., 5% CO2, and 95% relative humidity. The cells are plated in 384 well black plates (10,000 cells per well). After 24 hours the cells are loaded with Fluo4-AM (1.6 μM in HBSS and 2.5 mM probenicid) for 1 hour at 37° C. After washing, the cells are transferred to the FLIPR. The test compounds are added at different concentrations (≦30 μM) in HBSS in the presence of 0.1% BSA and changes in fluorescence are recorded (indication of agonism). The probing agonist is added 15 minutes afterwards to the wells at a concentration giving 80% of the maximal activity (EC80). After each addition time points are collected as follows: 20 time points (2 seconds) before the addition of the agonist (Fmin) and 60 time points (1 or 2 seconds) after the addition of the probing agonist. This allows the determination of the maximal fluorescence (Fmax). The ratio (Fmax-Fmin)/Fmin is plotted against the log of the concentration of the test compounds and the IC50 (relative antagonism) is determined with the help of XLfit-4 software. […] A dose response curve of the probing agonist is determined on each plate in parallel. The compounds of the invention are typically active in this assay at a concentration ranging typically from <1 nM to 30 μM, usually from less than 1 nanomolar to 1 micromolar.

T1 sequence (P21453 whole entry): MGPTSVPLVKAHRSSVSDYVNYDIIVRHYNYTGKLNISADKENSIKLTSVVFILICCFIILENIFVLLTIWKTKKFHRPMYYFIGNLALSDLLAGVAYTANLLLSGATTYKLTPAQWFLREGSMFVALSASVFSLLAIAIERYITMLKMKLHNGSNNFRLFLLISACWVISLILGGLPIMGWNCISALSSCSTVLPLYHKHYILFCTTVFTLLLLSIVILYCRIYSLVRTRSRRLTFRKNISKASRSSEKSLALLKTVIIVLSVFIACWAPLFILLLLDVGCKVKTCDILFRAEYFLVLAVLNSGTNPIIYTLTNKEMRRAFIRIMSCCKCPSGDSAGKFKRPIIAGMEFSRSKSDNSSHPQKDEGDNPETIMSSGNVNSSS

Regarding `Cc1cc(S(=O)(=O)Nc2cccc(-c3ccc(C(=O)N(C)[C@@H](CO)C(=O)O)cc3)c2)c(C)cc1Cl` [Example 85, (S)-2-{[3′-(4-Chloro-2,5-dimethyl-benzenesulfonylamino)-biphenyl-4-carbonyl]-methyl-amino}-3-hydroxy-propionic acid], the concentration for half-maximal inhibition (IC50) (commonly the concentration needed to halve the response being measured) was 1.7 nM.
For the compound `Cc1cc(S(=O)(=O)Nc2cccc(-c3ccc(C(=O)N[C@H](CO)C(=O)O)cc3)c2)c(C)cc1Cl` [Example 86], the IC50 is 1.5 nM.
As for `Cc1cc(S(=O)(=O)Nc2cccc(-c3cc(C)c(C(=O)N[C@@H](CO)C(=O)O)c(C)c3)c2)c(C)cc1Cl` [Example 131, (S)-2-{[3′-(4-Chloro-2,5-dimethyl-benzenesulfonylamino)-3,5-dimethyl-biphenyl-4-carbonyl]-amino}-3-hydroxy-propionic acid], the figure is 0.6 nM; as for `Cc1cc(S(=O)(=O)Nc2cccc(-c3cc(C)c(C(=O)N[C@@H](C)C(=O)O)c(C)c3)c2)c(C)cc1Cl` [Example 132, (S)-2-{[3′-(4-Chloro-2,5-dimethyl-benzenesulfonylamino)-3,5-dimethyl-biphenyl-4-carbonyl]-amino}-propionic acid], 1.1 nM.
Regarding `Cc1cc(S(=O)(=O)Nc2cccc(-c3cc(C)c(C(=O)N[C@H](CO)C(=O)O)c(C)c3)c2)c(C)cc1Cl` [Example 133, (R)-2-{[3′-(4-Chloro-2,5-dimethyl-benzenesulfonylamino)-3,5-dimethyl-biphenyl-4-carbonyl]-amino}-3-hydroxy-propionic acid], the half-inhibitory concentration (IC50) stood at 3.5 nM.
As for `Cc1cc(S(=O)(=O)Nc2cccc(-c3cc(C)c(C(=O)N[C@H](C)C(=O)O)c(C)c3)c2)c(C)cc1Cl` [Example 134, (R)-2-{[3′-(4-Chloro-2,5-dimethyl-benzenesulfonylamino)-3,5-dimethyl-biphenyl-4-carbonyl]-amino}-propionic acid], the figure is 7 nM; as for `CC[C@H](NC(=O)c1c(C)cc(-c2cccc(NS(=O)(=O)c3cc(C)c(Cl)cc3C)c2)cc1C)C(=O)O` [Example 135, (S)-2-{[3′-(4-Chloro-2,5-dimethyl-benzenesulfonylamino)-3,5-dimethyl-biphenyl-4-carbonyl]-amino}-butyric acid], 1.7 nM; as for `COC[C@H](NC(=O)c1c(C)cc(-c2cccc(NS(=O)(=O)c3cc(C)c(Cl)cc3C)c2)cc1C)C(=O)O` [Example 136, (S)-2-{[3′-(4-Chloro-2,5-dimethyl-benzenesulfonylamino)-3,5-dimethyl-biphenyl-4-carbonyl]-amino}-3-methoxy-propionic acid], 1.7 nM.
Consider `Cc1cc(S(=O)(=O)Nc2cccc(-c3cc(C)c(C(=O)NCC(=O)O)c(C)c3)c2)c(C)cc1Cl` [Example 137, {[3′-(4-Chloro-2,5-dimethyl-benzenesulfonylamino)-3,5-dimethyl-biphenyl-4-carbonyl]-amino}-acetic acid], for which the concentration for half-maximal inhibition (IC50) was 1 nM.
As for `Cc1cc(S(=O)(=O)Nc2cccc(-c3cc(C)c(C(=O)N(C)[C@@H](CO)C(=O)O)c(C)c3)c2)c(C)cc1Cl` [Example 138, (S)-2-{[3′-(4-Chloro-2,5-dimethyl-benzenesulfonylamino)-3,5-dimethyl-biphenyl-4-carbonyl]-methyl-amino}-3-hydroxy-propionic acid], the figure is 1.1 nM.
Consider `Cc1cc(S(=O)(=O)Nc2cccc(-c3cc(C)c(C(=O)N(C)[C@@H](C)C(=O)O)c(C)c3)c2)c(C)cc1Cl` [Example 139, (S)-2-{[3′-(4-Chloro-2,5-dimethyl-benzenesulfonylamino)-3,5-dimethyl-biphenyl-4-carbonyl]-methyl-amino}-propionic acid], for which the half-inhibitory concentration (IC50) was 1.1 nM.
Consider `Cc1cc(S(=O)(=O)Nc2cccc(-c3cc(C)c(C(=O)N[C@@H](CN)C(=O)O)c(C)c3)c2)c(C)cc1Cl` [Example 142, (S)-3-Amino-2-{[3′-(4-chloro-2,5-dimethyl-benzenesulfonylamino)-3,5-dimethyl-biphenyl-4-carbonyl]-amino}-propionic acid], for which the IC50 was 5.5 nM.
Consider `Cc1cc(S(=O)(=O)Nc2cccc(-c3cc(C)c(C(=O)N[C@H](CN)C(=O)O)c(C)c3)c2)c(C)cc1Cl` [Example 143, (R)-3-Amino-2-{[3′-(4-chloro-2,5-dimethyl-benzenesulfonylamino)-3,5-dimethyl-biphenyl-4-carbonyl]-amino}-propionic acid], for which the IC50 was 5 nM.
Take `Cc1cc(S(=O)(=O)Nc2cccc(-c3cc(C)c(C(=O)NC4(C(=O)O)CN(C(=O)OC(C)(C)C)C4)c(C)c3)c2)c(C)cc1Cl` [Example 144, 3-{[3′-(4-Chloro-2,5-dimethyl-benzenesulfonylamino)-3,5-dimethyl-biphenyl-4-carbonyl]-amino}-azetidine-1,3-dicarboxylic acid mono-tert-butyl ester]: the IC50 stood at 4 nM.
Take `Cc1cc(S(=O)(=O)Nc2cccc(-c3cc(C)c(C(=O)NC4(C(=O)O)CNC4)c(C)c3)c2)c(C)cc1Cl` [Example 145, 3-{[3′-(4-Chloro-2,5-dimethyl-benzenesulfonylamino)-3,5-dimethyl-biphenyl-4-carbonyl]-amino}-azetidine-3-carboxylic acid]: the IC50 is 2 nM.
For the compound `Cc1cc(S(=O)(=O)Nc2cccc(-c3cc(C)c(C(=O)NC4(C(=O)O)CCOCC4)c(C)c3)c2)c(C)cc1Cl` [Example 146, 4-{[3′-(4-Chloro-2,5-dimethyl-benzenesulfonylamino)-3,5-dimethyl-biphenyl-4-carbonyl]-amino}-tetrahydro-pyran-4-carboxylic acid], the IC50 came to 2 nM.
Take `Cc1cc(S(=O)(=O)Nc2cccc(-c3cc(C)c(C(=O)NC4(C(=O)O)CCC4)c(C)c3)c2)c(C)cc1Cl` [Example 147, 1-{[3′-(4-Chloro-2,5-dimethyl-benzenesulfonylamino)-3,5-dimethyl-biphenyl-4-carbonyl]-amino}-cyclobutanecarboxylic acid]: the IC50 is 3.5 nM.
As for `Cc1cc(S(=O)(=O)Nc2cccc(-c3cc(C)c(C(=O)NC(C)(C)C(=O)O)c(C)c3)c2)c(C)cc1Cl` [Example 148, 2-{[3′-(4-Chloro-2,5-dimethyl-benzenesulfonylamino)-3,5-dimethyl-biphenyl-4-carbonyl]-amino}-2-methyl-propionic acid], the IC50 came out at 5 nM.
On to `Cc1cc(S(=O)(=O)Nc2cccc(-c3cc(C)c(C(=O)NC4(C(=O)O)CC4)c(C)c3)c2)c(C)cc1Cl` [Example 149, 1-{[3′-(4-Chloro-2,5-dimethyl-benzenesulfonylamino)-3,5-dimethyl-biphenyl-4-carbonyl]-amino}-cyclopropanecarboxylic acid], for which the half-maximal inhibitory concentration (IC50) is 1.7 nM.
For the compound `Cc1cc(S(=O)(=O)Nc2cccc(-c3cc(C)c(C(=O)NC4(C(=O)O)CN(C)C4)c(C)c3)c2)c(C)cc1Cl` [Example 150, 3-{[3′-(4-Chloro-2,5-dimethyl-benzenesulfonylamino)-3,5-dimethyl-biphenyl-4-carbonyl]-amino}-1-methyl-azetidine-3-carboxylic acid], the concentration for half-maximal inhibition (IC50) was determined as 1.6 nM.
For the compound `Cc1cc(S(=O)(=O)Nc2cccc(-c3cc(C)c(C(=O)N[C@@H](C)C(N)=O)c(C)c3)c2)c(C)cc1Cl` [Example 151, 3′-(4-Chloro-2,5-dimethyl-benzenesulfonylamino)-3,5-dimethyl-biphenyl-4-carboxylic acid ((S)-1-carbamoyl-ethyl)-amide], the IC50 was 8 nM.
